Data reported in US20260000698A1 (priority 2022, published 2026).

Tests used:
SARS-CoV-2 Nsp14 MTase [1] = biological target: T1, SARS-CoV-2 Nsp14 MTase (Severe acute respiratory syndrome coronavirus 2, UniProt P0DTD1); test: Nsp14 MTase assay detected with MTase-Glo methyltransferase assay kit; type: biochemical; conditions: for inhibition at 10 µM: read-out: MTase % inhibition at 10 μM; for IC50: methylation reaction detected by MTase-Glo kit
Experimental: Detection using MTase-Glo™ methyltransferase assay kits. The assay was run according to Promega MTase-Glo™ kit (V7601) instructions. […]. GpppA was purchased by New England Biolabs and used at a final concentration of 3 uM/reaction. […] […] Compounds, Nsp14, GpppA at MTase-Glo™ reagent were pre-incubated for 15 min at room temperature. The assay was started with addition of SAM at final concentration of 1 uM/reaction (negative control had no SAM). The assay plate was mixed well with a plate shaker after each addition. The reaction was incubated for 15 min at 30° C. MTase-Glo™ detection solution was added, and the plate was incubated 60 min at room temperature. Luminescence was read on an M5e spectrophotometer.

A549/ACE2/TMPRSS2 cells = test: in vitro; conditions: for CC50: NT (nontoxic): cell viability at 50 μM; for CC50: A549/ACE2/TMPRSS2 cells; for cytotoxicity: human, 100 μM
Experimental: Percentage of infected cells was determined by dividing the number of infected cells by the total number of cells per well. The percentage of infected cells and total number of cells for each treatment was plotted into GraphPad prism (GraphPad Software; San Diego, CA, USA) to perform a non-linear regression analysis, generate infectious dose-response curves and to calculate EC50 and CC50 values.
Viability assays for the non-infected A549/ACE2/TMPRSS2 cells were performed using the 3-(4,5-dimethylthiazol-2-yl)-5-(3-carboxymethoxyphenyl)-2-(4-sulfophenyl)-2H-tetrazolium (MTS)-based tetrazolium reduction CellTiter 96 Aqueous Non-Radioactive cell proliferation assay (Promega G5430; Madison, WI) as described. Assays were conducted using parallel plates to those used in the immunofluorescence assay. Experimental details (cell line, number of cells seeded and incubation time) corresponded to those used in the immunofluorescence assay above. The data obtained were used to calculate the CC50 value using GraphPad Prism software.

SARS-CoV-2 Nsp14 MTase [2] = biological target: T1, SARS-CoV-2 Nsp14 MTase; test: biochemical; type: biochemical
[3] = system: SARS-CoV-2 isolate USA-WA1/2020; conditions: for EC50: NA (not active): inhibition at 50 μM
[4] = system: SARS-CoV-2 isolate USA-WA1/2020; test: microbe, parasite or virus in culture; conditions: Severe acute respiratory syndrome coronavirus 2, A549-ACE2, 48 h
[5] = LC-MS/MS detection of SAH, read-out: MTase IC50

Compound `COc1ccc(S(=O)(=O)NC[C@H]2O[C@@H](c3ccc4c(N)ncnn34)[C@H](O)[C@@H]2O)cc1C#N` [Compound 41, N-(((2R,3S,4R,5S)-5-(4-aminopyrrolo[2,1-f][1,2,4]triazin-7-yl)-3,4-dihydroxytetrahydrofuran-2-yl)methyl)-3-cyano-4-methoxybenzenesulfonamide] has an inhibition at 10 µM (SARS-CoV-2 Nsp14 MTase [1]) of 94%.
Compound `Nc1ncnc2c1ccn2[C@@H]1O[C@H](CNS(=O)(=O)c2ccc3ccccc3c2)[C@@H](O)[C@H]1O` [Compound C9, N-(((2R,3S,4R,5R)-5-(4-Amino-7H-pyrrolo[2,3-d]pyrimidin-7-yl)-3,4-dihydroxytetrahydrofuran-2-yl)methyl)naphthalene-2-sulfonamide] has an IC50 (SARS-CoV-2 Nsp14 MTase [1]) of 19 nM.
For `Nc1ncnc2c1ncn2[C@@H]1O[C@H](CNS(=O)(=O)c2ccc3nc(Cl)ccc3c2)[C@@H](O)[C@H]1O` [Compound 5, N-(((2R,3S,4R,5R)-5-(6-Amino-9H-purin-9-yl)-3,4-dihydroxytetrahydrofuran-2-yl)methyl)-2-chloroquinoline-6-sulfonamide], the “CC50: NT (nontoxic)” value (A549/ACE2/TMPRSS2 cells) was “NT^b (NT, nontoxic, >95% cell viability at 50 μM;)”, the IC50 (SARS-CoV-2 Nsp14 MTase [2]; [5]) was 440 nM and the “fold reduction in inhibitory activity” value (SARS-CoV-2 Nsp14 MTase [2]; on replacing 2-naphthalene) was 7 fold. The “EC50: NA (not active)” value [3] was “NA^a (NA, not active, <15% inhibition at 50 μM.)”.
In the case of `CC(=O)O[C@@H]1[C@H](OC(C)=O)[C@@H](CNS(=O)(=O)c2ccc3ccccc3c2)O[C@H]1c1ccc2c(N)ncnn12` [Compound 11, (2S,3S,4R,5R)-2-(4-Aminopyrrolo[2,1-f][1,2,4]triazin-7-yl)-5-((naphthalene-2-sulfonamido)methyl)tetrahydrofuran-3,4-diyl diacetate], the EC50 [4] is reported as 4300 nM, the CC50 (A549/ACE2/TMPRSS2 cells) is reported as 63000 nM and the “cytotoxicity” value (A549/ACE2/TMPRSS2 cells) is reported as “more toxic than 10”. For the same compound, the “antiviral activity” value ([3]; A549 AT cells) was “less active”.
`COc1ccc(S(=O)(=O)NC[C@H]2O[C@@H](c3ccc4c(N)ncnn34)[C@H](O)[C@@H]2O)cc1[N+](=O)[O-]` [Compound 43, N-(((2R,3S,4R,5S)-5-(4-aminopyrrolo[2,1-f][1,2,4]triazin-7-yl)-3,4-dihydroxytetrahydrofuran-2-yl)methyl)-4-methoxy-3-nitrobenzenesulfonamide] was tested, and the inhibition at 10 µM (SARS-CoV-2 Nsp14 MTase [1]) was 79%.
`COc1ccc(S(=O)(=O)NC[C@H]2O[C@@H](n3ccc4c(N)ncnc43)[C@H](O)[C@@H]2O)cc1C#N` [Compound C11, N-(((2R,3S,4R,5R)-5-(4-Amino-7H-pyrrolo[2,3-d]pyrimidin-7-yl)-3,4-dihydroxytetrahydrofuran-2-yl)methyl)-3-cyano-4-methoxybenzenesulfonamide] gave an inhibition at 10 µM (SARS-CoV-2 Nsp14 MTase [1]) of 98%.
In the case of `Nc1ncnc2c1ncn2[C@@H]1O[C@H](C[C@@H](N)CC[C@H](N)C(=O)O)[C@@H](O)[C@H]1O` [sinefungin, reference compound], the “CC50: NT (nontoxic)” value (A549/ACE2/TMPRSS2 cells) is reported as “NT^b (NT, nontoxic, >95% cell viability at 50 μM;)” and the “EC50: NA (not active)” value [3] is reported as “NA^a (NA, not active, <15% inhibition at 50 μM.)”.
For `CC(=O)Nc1ncnc2c1ncn2[C@@H]1O[C@H](CNS(=O)(=O)c2ccc3ccccc3c2)[C@@H](O)[C@H]1O` [Compound 6, N-(9-((2R,3R,4S,5R)-3,4-Dihydroxy-5-((naphthalene-2-sulfonamido)methyl)tetrahydrofuran-2-yl)-9H-purin-6-yl)acetamide], the CC50 (A549/ACE2/TMPRSS2 cells) was over 100000 nM, the IC50 (SARS-CoV-2 Nsp14 MTase [2]; LC-MS/MS assay, read-out: IC50) was 48 nM and the “EC50: NA (not active)” value [3] was “NA^a (NA, not active, <15% inhibition at 50 μM.)”.
For `CCN(C[C@H]1O[C@@H](c2ccc3c(N)ncnn23)[C@H](O)[C@@H]1O)S(=O)(=O)c1ccc2ccccc2c1` [Compound 53, N-(((2R,3S,4R,5S)-5-(4-Aminopyrrolo[2,1-f][1,2,4]triazin-7-yl)-3,4-dihydroxytetrahydrofuran-2-yl)methyl)-N-ethylnaphthalene-2-sulfonamide], the IC50 (SARS-CoV-2 Nsp14 MTase [1]) was 156 nM.
Compound `Nc1ncnn2c([C@@H]3O[C@H](CNS(=O)(=O)c4ccc5ccccc5c4)[C@@H](O)[C@H]3O)cc(F)c12` [Compound 51, N-(((2R,3S,4R,5S)-5-(4-Amino-5-fluoropyrrolo[2,1-f][1,2,4]triazin-7-yl)-3,4-dihydroxytetrahydrofuran-2-yl)methyl)naphthalene-2-sulfonamide] has an IC50 (SARS-CoV-2 Nsp14 MTase [1]) of 32 nM.
Work on `Nc1ncnc2c([C@@H]3O[C@H](CNS(=O)(=O)c4ccc5ccccc5c4)[C@@H](O)[C@H]3O)csc12` [Compound B12, N-(((2R,3S,4R,5S)-5-(4-Aminothieno[3,2-d]pyrimidin-7-yl)-3,4-dihydroxytetrahydrofuran-2-yl)methyl)naphthalene-2-sulfonamide] yielded an inhibition at 10 µM (SARS-CoV-2 Nsp14 MTase [1]) of 91%.
With `CCN(C[C@H]1O[C@@H](n2ccc3c(N)ncnc32)[C@H](O)[C@@H]1O)S(=O)(=O)c1ccc(OC)c(C#N)c1` [Compound C13, N-(((2R,3S,4R,5R)-5-(4-Amino-7H-pyrrolo[2,3-d]pyrimidin-7-yl)-3,4-dihydroxytetrahydrofuran-2-yl)methyl)-3-cyano-N-ethyl-4-methoxybenzenesulfonamide] the inhibition at 10 µM (SARS-CoV-2 Nsp14 MTase [1]) was 100%.
`CC(=O)O[C@@H]1[C@H](OC(C)=O)[C@@H](CNS(=O)(=O)c2ccc3ccccc3c2)O[C@H]1n1cnc2c(N)ncnc21` [Compound 8, (2R,3R,4R,5R)-2-(6-Amino-9H-purin-9-yl)-5-((naphthalene-2-sulfonamido)methyl)tetrahydrofuran-3,4-diyl diacetate] was tested, and the EC50 [4] was 53000 nM, the CC50 (A549/ACE2/TMPRSS2 cells) was over 100000 nM and the “cytotoxicity” value (A549/ACE2/TMPRSS2 cells) was “minimal cytotoxicity at 100 μM”.
In the case of `Nc1ncnc2c1ncn2[C@@H]1O[C@H](CNCc2ccc3ccccc3c2)[C@@H](O)[C@H]1O` [Compound 1, (2R,3R,4S,5R)-2-(6-Amino-9H-purin-9-yl)-5-(((naphthalen-2-ylmethyl)amino)methyl)tetrahydrofuran-3,4-diol], the “CC50: NT (nontoxic)” value (A549/ACE2/TMPRSS2 cells) is reported as “NT^b (NT, nontoxic, >95% cell viability at 50 μM;)”, the IC50 (SARS-CoV-2 Nsp14 MTase [2]; [5]) is reported as 9600 nM and the “EC50: NA (not active)” value [3] is reported as “NA^a (NA, not active, <15% inhibition at 50 μM.)”.
For `Nc1ncnc2c1ncn2[C@@H]1O[C@H](CNC(=O)c2ccc3ccccc3c2)[C@@H](O)[C@H]1O` [Compound 2, N-(((2R,3S,4R,5R)-5-(6-Amino-9H-purin-9-yl)-3,4-dihydroxytetrahydrofuran-2-yl)methyl)-2-naphthamide], the “CC50: NT (nontoxic)” value (A549/ACE2/TMPRSS2 cells) was “NT^b (NT, nontoxic, >95% cell viability at 50 μM;)”, the IC50 (SARS-CoV-2 Nsp14 MTase [2]; [5]) was 2700 nM and the “EC50: NA (not active)” value [3] was “NA^a (NA, not active, <15% inhibition at 50 μM.)”.
`CC(=O)Nc1ncnc2c1ncn2[C@@H]1O[C@H](CNS(=O)(=O)c2ccc3ccccc3c2)[C@@H](OC(C)=O)[C@H]1OC(C)=O` [Compound 9, (2R,3R,4R,5R)-2-(6-Acetamido-9H-purin-9-yl)-5-((naphthalene-2-sulfonamido)methyl)tetrahydrofuran-3,4-diyl diacetate] was tested, and the EC50 [4] was 61000 nM, the CC50 (A549/ACE2/TMPRSS2 cells) was over 100000 nM and the “cytotoxicity” value (A549/ACE2/TMPRSS2 cells) was “minimal cytotoxicity at 100 μM”.
`CCC(CC)COC(=O)[C@H](C)N[P@](=O)(OC[C@H]1O[C@@](C#N)(c2ccc3c(N)ncnn23)[C@H](O)[C@@H]1O)Oc1ccccc1` [remdesivir, reference compound] gave an EC50 [4] of 93 nM and a CC50 (A549/ACE2/TMPRSS2 cells) of 43000 nM.
Work on `Nc1ncnn2c([C@@H]3O[C@H](CNS(=O)(=O)c4cccc(-c5ccccc5)c4)[C@@H](O)[C@H]3O)ccc12` [Compound 45, N-(((2R,3S,4R,5S)-5-(4-Aminopyrrolo[2,1-f][1,2,4]triazin-7-yl)-3,4-dihydroxytetrahydrofuran-2-yl)methyl)-[1,1′-biphenyl]-3-sulfonamide] yielded an inhibition at 10 µM (SARS-CoV-2 Nsp14 MTase [1]) of 85%.
`Nc1ncnn2c([C@@H]3O[C@H](CNS(=O)(=O)c4ccc5c(Cl)cccc5c4)[C@@H](O)[C@H]3O)ccc12` [Compound 39, N-(((2R,3S,4R,5S)-5-(4-aminopyrrolo[2,1-f][1,2,4]triazin-7-yl)-3,4-dihydroxytetrahydrofuran-2-yl)methyl)-5-chloronaphthalene-2-sulfonamide] was tested, and the IC50 (SARS-CoV-2 Nsp14 MTase [1]) was 49 nM.
For `Nc1ncnc2c1ncn2[C@@H]1O[C@H](CNS(=O)(=O)c2ccc3cccnc3c2)[C@@H](O)[C@H]1O` [Compound 4, N-(((2R,3S,4R,5R)-5-(6-Amino-9H-purin-9-yl)-3,4-dihydroxytetrahydrofuran-2-yl)methyl)quinoline-7-sulfonamide], the “CC50: NT (nontoxic)” value (A549/ACE2/TMPRSS2 cells) was “NT^b (NT, nontoxic, >95% cell viability at 50 μM;)”, the “MTase inhibitory activity” value (SARS-CoV-2 Nsp14 MTase [2]) was “comparable to that of compound 1” and the IC50 (SARS-CoV-2 Nsp14 MTase [2]; [5]) was 69 nM. The “EC50: NA (not active)” value [3] was “NA^a (NA, not active, <15% inhibition at 50 μM.)”.
With `Nc1ncnn2c([C@@H]3O[C@H](CNS(=O)(=O)c4ccc(-c5ccccc5)cc4)[C@@H](O)[C@H]3O)ccc12` [Compound 47, N-(((2R,3S,4R,5S)-5-(4-Aminopyrrolo[2,1-f][1,2,4]triazin-7-yl)-3,4-dihydroxytetrahydrofuran-2-yl)methyl)-[1,1′-biphenyl]-4-sulfonamide] the inhibition at 10 µM (SARS-CoV-2 Nsp14 MTase [1]) was 85%.
